Values after ≈ are worked out from the molar mass of the structure shown.
What was measured:
[1] = tested on: Pseudomonas aeruginosa 1592E; assay: Antibacterial activity, MIC by Agar dilution method, standard test strain 13; assay type: cell-based; conditions: 10^7 CFU/ml, 37° C., 18 hours
Procedure: (§1) The antibacterial activity was determined by an Agar dilution method as described below.
(§2) That is, the two-fold serial dilutions of the antibacterial compounds (1000 μg compound/ml) were prepared and dispersed in Muller Hinton Agar in a petri dish to a concentration of 100~0.002 μg/ml. The culture broths of standard test strains were inoculated on the medium to a concentration 10^7 CFU/ml, and incubated at 37° C. for 18 hours. The concentration of compounds(I) at which the strains were not grown was regarded as minimum inhibition concentration (MIC).
(§3) The results of antibacterial activity test of the representative examples of the compound (I) against 20 standard test strains shown in terms of MIC were indicated in Table 1.
13. Pseudomonas aeruginosa 1592E

[2] = tested on: Proteus mirabilis; assay: MIC against clinically isolated strains; assay type: cell-based; conditions: 18 h, 4 clinical isolates
Procedure: as §1, §2

[3] = tested on: D Streptococcus I; assay: MIC against clinically isolated strains; assay type: cell-based; conditions: 18 h, 20 clinical isolates
Procedure: as §1, §2

[4] = tested on: Streptococcus II; assay: MIC against clinically isolated strains; assay type: cell-based; conditions: 18 h, 17 clinical isolates
Procedure: as §1, §2

[5] = tested on: Pseudomonas aeruginosa; assay: MIC against clinically isolated strains; assay type: cell-based; conditions: 18 h, 20 clinical isolates
Procedure: as §1, §2

[6] = tested on: Streptococcus I; assay: MIC against clinically isolated strains; assay type: cell-based; conditions: 20 clinical isolates
Procedure: as §1, §2

[7] = tested on: Providencia rettgeri; assay: MIC against clinically isolated strains; assay type: cell-based; conditions: 18 h, 6 clinical isolates
Procedure: as §1, §2

[8] = tested on: Pseudomonas II; assay: MIC against clinically isolated strains; assay type: cell-based; conditions: 18 h, 19 clinical isolates
Procedure: as §1, §2

[9] = tested on: Morganella morganil; assay: MIC against clinically isolated strains; assay type: cell-based; conditions: 18 h, 5 clinical isolates
Procedure: as §1, §2

[10] = tested on: Proteus vulgaris; assay: MIC against clinically isolated strains; assay type: cell-based; conditions: 18 h, 5 clinical isolates
Procedure: as §1, §2

[11] = tested on: Escherichia coli; assay: MIC against clinically isolated strains; assay type: cell-based; conditions: 18 h, 20 clinical isolates
Procedure: as §1, §2

[12] = tested on: Enterobacter cloacae; assay: MIC against clinically isolated strains; assay type: cell-based; conditions: 20 clinical isolates
Procedure: as §1, §2

[13] = tested on: Enterococcus I; assay: MIC against clinically isolated strains; assay type: cell-based; conditions: 18 h, 20 clinical isolates
Procedure: as §1, §2

[14] = tested on: D Streptococcus II; assay: MIC against clinically isolated strains; assay type: cell-based; conditions: 18 h, 20 clinical isolates
Procedure: as §1, §2

[15] = tested on: Enterococcus II; assay: MIC against clinically isolated strains; assay type: cell-based; conditions: 20 clinical isolates
Procedure: as §1, §2

[16] = tested on: Serratia spp; assay: MIC against clinically isolated strains; assay type: cell-based; conditions: 18 h, 20 clinical isolates
Procedure: as §1, §2

[17] = tested on: Pseudomonas I; assay: MIC against clinically isolated strains; assay type: cell-based; conditions: 18 h, 19 clinical isolates
Procedure: as §1, §2

[18] = tested on: Escherichia coli O 55; assay: Antibacterial activity, MIC by Agar dilution method, standard test strain 7; assay type: cell-based; conditions: Escherichia coli, O55, 18 h
Procedure: as §1, §2, §3

[19] = target: T1, β-lactamase from Enterobacter cloacae P99 (Enterobacter cloacae, UniProt P05364); assay: Stability against β-lactamase, relative hydrolysis; assay type: biochemical; conditions: Enterobacter cloacae P99 enzyme; 100 μM; relative(percentage), Cephaloridine taken as 100; OD at 260 nm
T1 construct: directly isolated from Enterobacter cloacae P99, E. coli TEM and Citrobacter freundii; endogenous in cells; host or cells: Enterobacter cloacae P99
Procedure: The β-lactamases employed in the test were directly isolated from Enterobacter cloacae P99, E. coli TEM and Citrobacter freundii, and the antibiotics for comparison were Cephaloridine, Cephradine, Cefoperazone and Cefotaxime.
The relative hydrolysis of various compounds were calculated relative to the OD of Cephaloridine.

T1 sequence (P05364 21-381): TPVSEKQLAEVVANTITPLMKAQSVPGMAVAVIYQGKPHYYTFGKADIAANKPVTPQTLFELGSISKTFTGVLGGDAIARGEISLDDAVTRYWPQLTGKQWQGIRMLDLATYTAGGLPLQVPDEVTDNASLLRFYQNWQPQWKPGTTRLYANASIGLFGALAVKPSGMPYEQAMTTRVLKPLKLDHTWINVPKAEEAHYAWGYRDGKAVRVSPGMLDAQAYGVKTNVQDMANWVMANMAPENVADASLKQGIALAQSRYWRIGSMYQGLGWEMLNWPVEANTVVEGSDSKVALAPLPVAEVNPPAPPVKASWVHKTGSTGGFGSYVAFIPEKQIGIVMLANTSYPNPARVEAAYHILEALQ

CON=C(C(=O)NC1C(=O)N2C(C(=O)[O-])=C(C[n+]3nn(N)c4ccccc43)CSC12)c1csc(N)n1 [Example 18, (6R,7R)-7-[(Z)-2-(2-aminothiazol-4-yl)-2-methoxyiminoacetamido]-3-[(1-aminobenzotriazol-3-ium)methyl]-ceph-3-em-4-carboxylate]
MIC [1]: 1.56 µg/mL (≈ 2.95 µM) | MIC [2]: 0.013 to 0.098 µg/mL (≈ 0.0245 to 0.185 µM) | MIC50 [2]: 0.013 µg/mL (≈ 0.0245 µM) | MIC90 [2]: 0.098 µg/mL (≈ 0.185 µM) | MIC [3]: 3.12 to 100 µg/mL (≈ 5.9 to 189 µM) | MIC50 [3]: 12.5 µg/mL (≈ 23.6 µM) | MIC90 [3]: 100 µg/mL (≈ 189 µM) | MIC [4]: 0.002 to 0.013 µg/mL (≈ 0.00378 to 0.0245 µM) | MIC50 [4]: 0.004 µg/mL (≈ 0.00755 µM) | MIC90 [4]: 0.007 µg/mL (≈ 0.0132 µM) | MIC [5]: 1.56 to 25 µg/mL (≈ 2.95 to 47.2 µM) | MIC50 [5]: 6.25 µg/mL (≈ 11.8 µM) | MIC90 [5]: 12.5 µg/mL (≈ 23.6 µM) | MIC Range [6]: 0.004 to 12.5 µg/mL | MIC50 ([6]; 18 h): 0.025 µg/mL (≈ 0.0472 µM) | MIC90 ([6]; 18 h): 6.25 µg/mL (≈ 11.8 µM) | MIC [7]: 0.007 to 0.195 µg/mL (≈ 0.0132 to 0.368 µM) | MIC50 [7]: 0.025 µg/mL (≈ 0.0472 µM) | MIC90 [7]: 0.098 µg/mL (≈ 0.185 µM) | MIC [8]: 0.391 to 12.5 µg/mL (≈ 0.738 to 23.6 µM) | MIC50 [8]: 1.56 µg/mL (≈ 2.95 µM) | MIC90 [8]: 6.25 µg/mL (≈ 11.8 µM) | MIC [9]: 0.004 to 0.025 µg/mL (≈ 0.00755 to 0.0472 µM) | MIC50 [9]: 0.013 µg/mL (≈ 0.0245 µM) | MIC90 [9]: 0.025 µg/mL (≈ 0.0472 µM) | MIC [10]: 0.025 to 0.195 µg/mL (≈ 0.0472 to 0.368 µM) | MIC50 [10]: 0.098 µg/mL (≈ 0.185 µM) | MIC90 [10]: 0.195 µg/mL (≈ 0.368 µM) | MIC [11]: 0.007 to 0.195 µg/mL (≈ 0.0132 to 0.368 µM) | MIC50 [11]: 0.013 µg/mL (≈ 0.0245 µM) | MIC90 [11]: 0.025 µg/mL (≈ 0.0472 µM) | MIC Range [12]: 0.007 to 12.5 µg/mL | MIC50 ([12]; 18 h): 0.025 µg/mL (≈ 0.0472 µM) | MIC90 ([12]; 18 h): 0.391 µg/mL (≈ 0.738 µM) | MIC [13]: 0.007 to 0.195 µg/mL (≈ 0.0132 to 0.368 µM) | MIC50 [13]: 0.025 µg/mL (≈ 0.0472 µM) | MIC90 [13]: 0.049 µg/mL (≈ 0.0925 µM) | MIC [14]: 3.12 to 100 µg/mL (≈ 5.9 to 189 µM) | MIC50 [14]: 25 µg/mL (≈ 47.2 µM) | MIC90 [14]: 50 µg/mL (≈ 94.4 µM) | MIC Range [15]: 0.004 to 25 µg/mL | MIC50 ([15]; 18 h): 0.025 µg/mL (≈ 0.0472 µM) | MIC90 ([15]; 18 h): 0.098 µg/mL (≈ 0.185 µM) | MIC [16]: 0.013 to 0.098 µg/mL (≈ 0.0245 to 0.185 µM) | MIC50 [16]: 0.025 µg/mL (≈ 0.0472 µM) | MIC90 [16]: 0.049 µg/mL (≈ 0.0925 µM) | MIC [17]: 0.195 to 12.5 µg/mL (≈ 0.368 to 23.6 µM) | MIC50 [17]: 1.56 µg/mL (≈ 2.95 µM) | MIC90 [17]: 6.25 µg/mL (≈ 11.8 µM) | MIC [18]: 0.007 µg/mL (≈ 0.0132 µM) | Relative hydrolysis by β-lactamase [19]: 0.0
